Patent US7378234B2, “Method for isolating hepatitis C virus peptides” (Intercell AG, priority 2002, dated 2008)
“Also recorded” adds a separate entry of the source.

Key:
[1] = test system: HLA-DRB1*0401 transgenic mice; assay: Vaccination of HLA-DRB1*0401 transgenic mice (peptide + IC31), IFN-gamma ELISpot with spleen cells and CD4+ fraction; format: in vivo, mouse; details: peptide + IC31, whole spleen cells and CD4+ fraction
Description: (§1) Mouse splenocyte ELIspot assay for single cell IFN-gamma release ELISpot plates (MAHA S4510, Millipore, Germany) were rinsed with PBS (200 μl/well), coated with anti-mouse IFN-gamma mAb (clone R46A2; 100 μl/well of 5 μg/ml in 0.1 M NaHCO3, pH 9.2-9.5) and incubated overnight at 4° C. Plates were washed four times with PBS/0.1% Tween 20 and incubated with PBS/1% BSA (200 μl/well) at room temperature for 2 h to block nonspecific binding. Spleen cells from vaccinated mice were prepared and plated at 1×10^6-3×10^5 cells/well and incubated overnight at 37° C./5% CO2 either in the presence of the immunizing antigen (peptide), control peptides or with medium alone. Subsequently, plates were washed four times and incubated with biotinylated anti-mouse IFN-gamma mAb (clone AN18.17.24, 100 μl/well of 2 μg/ml in PBS/1% BSA) for 2 h at 37° C. After washing, streptavidin-peroxidase (Roche Diagnostics, Vienna, Austria) was added ( 1/5000 in PBS, 100 μl/well) and plates were incubated at room temperature for 2 additional hours. Subsequently, substrate was added to the washed plates (100 μl/well of a mixture of 10 ml 100 mM Tris pH 7.5 supplemented with 200 μl of 40 mg/ml DAB stock containing 50 μl of 80 mg/ml NiCl2 stock and 5 μl of 30% H2O2). The reaction was stopped after 20-30 minutes by washing the plates with tap water. Dried plates were evaluated with an ELISpot reader (BIOREADER 2000, BioSys, Karben, Germany).
(§2) Groups of 5 mice (HLA-A*0201-, HLA-DRB1*0401- and HLA-B*0702 transgenic mice, male, 8-14 weeks of age) were injected subcutaneous into the hind footpads with 100 μg of peptide +IC31 per mouse (50 μg per footpad). (PCT/EP01/12041, WO 02/32451 A1 and PCT/EP01/06433, WO 01/93905 A1; IC31 is a combination of the immunizer disclosed in WO 01/93905 and WO 02/32451).
(§3) 6 days after vaccination single cell suspension of pooled spleens were prepared and additionally pure fractions of CD8+ in the case of A2 and B7 tg mice (CD8+ fraction for B7 mice containing 97% of CD8 and 1.5% of CD4 cells and for A2 tg mice 83% of CD8 and 8% of CD4 cells) and CD4+ for DR4tg mice (CD4+ fraction for DR4tg mice containing 98% of CD4 cells and 0.2% of CD8 cells) were separated from the spleen cell suspension using MACS separating kit (Miltenyi, Germany).

[2] = test system: HLA-A*0201 transgenic mice; assay: Vaccination of HLA-A*0201 transgenic mice (peptide + IC31), IFN-gamma ELISpot with spleen cells and CD8+ fraction; format: in vivo, mouse; details: peptide + IC31, whole spleen cells and CD8+ fraction
Description: as §1, §2, §3

[3] = test system: HLA-DRB1*0401 transgenic mice; assay: Immunization of HLA-DRB1*0401 transgenic mice (peptide + CpI), splenocyte IFN-gamma ELISpot; format: in vivo, mouse; details: for immunogenicity in HLA-DRB1*0401 transgenic mice (in words): Example II, IFN-gamma ELISpot of splenocytes; for Immunogenicity, peptide-specific IFN-gamma-producing cells, DRB1*0401: HLA-DRB1*0401 transgenic mice, splenocytes
In short: (§4)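 Read-out is IFN-gamma ELISpot on splenocytes stimulated overnight with immunizing peptide, control peptide or medium alone, scored + (<100) or ++ (>100 peptide-specific cells per 10^6 splenocytes). Immunization: 100 μg peptide with 30 μg CpI per mouse, s.c. flank, three 8-week-old females per group.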

[4] = test system: HLA-B*0702 transgenic mice; assay: Vaccination of HLA-B*0702 transgenic mice (peptide + IC31), IFN-gamma ELISpot with spleen cells and CD8+ fraction; format: in vivo, mouse; details: for Immunogenicity, peptide-specific IFN-gamma-producing cells, B*0702: HLA-B*0702 transgenic mice, splenocytes; for specific INF-γ producing T cells / HLA-B*0702 epitope in HLA-B*0702 transgenic mice (in words): peptide + IC31, whole spleen cells and CD8+ fraction
In short: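 Transgenic mice (groups of 5, male, 8–14 weeks) vaccinated s.c. in hind footpads with 100 μg peptide + IC31; 6 days later pooled splenocytes or MACS-purified CD8+ (A2, B7) or CD4+ (DR4) fractions restimulated overnight with peptide. IFN-gamma spots counted by ELISpot, 1×10^6–3×10^5 cells/well.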

[5] = test system: HLA-A*0201 transgenic mice; assay: Immunization of HLA-A*0201 transgenic mice (peptide + CpI), splenocyte IFN-gamma ELISpot; format: in vivo, mouse; details: for immunogenicity in HLA-A*0201 transgenic mice (in words): Example II, IFN-gamma ELISpot of splenocytes; for Immunogenicity, peptide-specific IFN-gamma-producing cells, A*0201: HLA-A*0201 transgenic mice, splenocytes
In short: as §4

HLA class II = HLA class II coverage of hotspots and epitopes, compiled from the Examples and Tables of this specification (epitope capture, HLA-transgenic animals, in vitro stimulation of human mononuclear cells); details: source data: Examples and Tables within this specification
HLA-B*0702 = HLA-B*0702 (Homo sapiens, UniProt P01889); assay: Competition-type peptide binding assay, soluble HLA-B*0702, FITC-labelled reference peptide; details: for HLA-B*0702 minimal epitope (in words): short peptides from Ipep 1587 with HLA-B*0702 binding motifs
Description: These were tested in a competition-type peptide binding assay using soluble HLA-B*0702 and the FITC-labelled reference peptide […] (SEQ ID NO:1033), which is a known HLA-B*0702 epitope derived from EBV (Stuber et al., 1995). […] Thus it is likely to present the minimal HLA-B*0702 epitope contained in Ipep 1587.

[6] = test system: PBMC from HCV RNA-negativ therapy responders or subjects spontaneously recovered; assay: IFN-gamma ELIspot with human PBMC from HCV therapy responders or spontaneously recovered subjects; details: directly ex vivo, donor H04; >8 significant
HLA-DRB1*0404 = HLA-DRB1*0404 (Homo sapiens, UniProt P01903+P01911, A100R/A169T/F76Y/I96L/K127E/L162R/M171V/N62H/P40V/Q125Y/R42H/S133A/S149N/S66Y/V209L/W38E); assay: Epitope capture / peptide binding, SDS-stability assay, soluble DRB1*0404; details: soluble HLA class II, individual peptide confirmed (Table 2)
HLA-DRB1*0101 = HLA-DRB1*0101 (Homo sapiens, UniProt P01903+P01911, A100R/D57E/F55L/F60I/F76Y/I96L/L162R/M171V/P40L/Q125E/R42F/V115G/Y59C); assay: Epitope capture / peptide binding, SDS-stability assay, soluble DRB1*0101; details: soluble HLA class II, individual peptide confirmed (Table 2)
HLA-DRB1*0401 = HLA-DRB1*0401 (Homo sapiens, UniProt P01903+P01911, A100K/A169T/F76Y/I96L/K127E/L162R/M171V/N62H/P40V/Q125Y/R42H/S133A/S149N/S66Y/V115G/V209L/W38E); assay: Epitope capture / peptide binding, SDS-stability assay, soluble DRB1*0401; details: soluble HLA class II, individual peptide confirmed (Table 2)

Sequence | specific INF-γ producing T cells / HLA-DRB1*0401 epitope in HLA-DRB1*0401 transgenic mice (in words) [1] | specific INF-γ producing T cells / HLA-A*0201 epitope in HLA-A*0201 transgenic mice (in words) [2] | immunogenicity in HLA-DRB1*0401 transgenic mice (in words) [3] | Immunogenicity, peptide-specific IFN-gamma-producing cells, DRB1*0401 [3] | Immunogenicity, peptide-specific IFN-gamma-producing cells, B*0702 [4] | specific INF-γ producing T cells / HLA-B*0702 epitope in HLA-B*0702 transgenic mice (in words) [4] | immunogenicity in HLA-A*0201 transgenic mice (in words) [5] | Immunogenicity, peptide-specific IFN-gamma-producing cells, A*0201 [5] | HLA-class II coverage (HLA class II) | Binding to DRB1 *0101 (HLA-DRB1*0101) | further results
FWAKHMWNFISGIQYLAGLSTLPGNPAIASLMAF [Peptide 1565] | confirmed to contain human HLA-DRB1*0401 epitopes | confirmed to contain human HLA-A*0201 epitopes | immunogenic | ++ (strongly immunogenic (++, more than 100 peptide-specific cells among a million splenocytes)) | + (immunogenic (+, less than 100 peptide-specific cells among a million splenocytes)) | HLA-B*0702 epitopes with T-cell activating capacity | immunogenic | ++ (strongly immunogenic (++, more than 100 peptide-specific cells among a million splenocytes)) | – | – | –
VDYPYRLWHYPCTVNFTIFKVRMYVGGVEHRL [Peptide 1650] | confirmed to contain human HLA-DRB1*0401 epitopes | confirmed to contain human HLA-A*0201 epitopes | immunogenicity | ++ (strongly immunogenic (++, more than 100 peptide-specific cells among a million splenocytes)) | + (immunogenic (+, less than 100 peptide-specific cells among a million splenocytes)) | HLA-B*0702 epitopes with T-cell activating capacity | immunogenicity | ++ (strongly immunogenic (++, more than 100 peptide-specific cells among a million splenocytes)) | DR1,4,7,11 | – | –
SPGALVVGVI [Peptide 1838] | – | – | – | – | – | – | – | – | – | – | competition of FITC-labelled reference peptide binding to soluble HLA-B*0702 (HLA-B*0702; 80-fold molar excess, 48 h at 37° C., reference peptide LPCVLWPVL): ~30%; HLA-B*0702 minimal epitope (in words) (HLA-B*0702): minimal HLA-B*0702 epitopes; HLA-B*0702 minimal epitope (in words) (HLA-B*0702; listed as Ipep 1838): HLA-B*0702 minimal epitope
VVCCSMSYSWTGALITPC [Peptide 1605] | confirmed to contain human HLA-DRB1*0401 epitopes | confirmed to contain human HLA-A*0201 epitopes | immunogenicity | + (immunogenic (+, less than 100 peptide-specific cells among a million splenocytes)) | + (immunogenic (+, less than 100 peptide-specific cells among a million splenocytes)) | HLA-B*0702 epitopes with T-cell activating capacity | immunogenicity | + (immunogenic (+, less than 100 peptide-specific cells among a million splenocytes)) | – | nb (no binding) | peptide-specific IFN-gamma secreting T-cells, donor H04 [6]: 25 T-cells/10^6 PBMC; specific INF-γ producing T cells / HLA-DRB1*0401 epitope in HLA-DRB1*0401 transgenic mice (in words) ([1]; listed as Ipep1605): weaker responses; Binding to DRB1 *0404 (HLA-DRB1*0404): * (weak binding); specific INF-γ producing T cells / HLA-A*0201 epitope in HLA-A*0201 transgenic mice (in words) ([2]; listed as Ipep1605): weaker responses; specific INF-γ producing T cells / HLA-B*0702 epitope in HLA-B*0702 transgenic mice (in words) ([4]; listed as Ipep1605): weaker responses; Binding to DRB1 *0401 (HLA-DRB1*0401): nb (no binding)
VVCCSMSYTWTGALITPC [Peptide 1604] | – | – | immunogenic; also recorded: immunogenicity | ++ (strongly immunogenic (++, more than 100 peptide-specific cells among a million splenocytes)) | ++ (strongly immunogenic (++, more than 100 peptide-specific cells among a million splenocytes)) | HLA-B*0702 epitopes with T-cell activating capacity | immunogenicity | ++ (strongly immunogenic (++, more than 100 peptide-specific cells among a million splenocytes)) | DR1,4,7,11 | * (weak binding) | specific INF-γ producing T cells / HLA-DRB1*0401 epitope in HLA-DRB1*0401 transgenic mice (in words) ([1]; listed as Ipep1604): high numbers of specific INF-γ producing T cells; also recorded: class II epitope; specific INF-γ producing T cells / HLA-A*0201 epitope in HLA-A*0201 transgenic mice (in words) ([2]; listed as Ipep1604): high numbers of specific INF-γ producing T cells; also recorded: class I epitopes; specific INF-γ producing T cells / HLA-B*0702 epitope in HLA-B*0702 transgenic mice (in words) ([4]; listed as Ipep1604): high numbers of specific INF-γ producing T cells; also recorded: class I epitopes
